Test results taken from patent publication US7691827B2, “Amide prodrug of gemcitabine, compositions and use thereof” (Eli Lilly and Company, priority 2004, dated 2010).

Legend:
[1] = Liver S9 Hydrolysis Assay (human); format: in vitro ADME
Method: (§1) Liver S9 Hydrolysis Assay
(§2) Hydrolysis of a compound of formula I by liver enzymes is determined by liver hydrolysis assay. Liver homogenates are prepared from CD-1 mouse, beagle dog, cynomolgus monkey, and human livers. Liver tissues are cut into small pieces using scissors, then, homogenized in 50 mM acetate buffer using Polytron (PT-10-85) for 1 min. Post-mitochondrial (S9) fractions are prepared from each by ultracentrifugation at 9,000×g at 4° C. for 10 min. Mouse, dog and monkey liver S9 fractions are prepared from freshly collected tissues, while human liver S9 are prepared from previously frozen tissue. After centrifugation, the supernatant is collected and protein concentrations are determined by standard spectrophotometric techniques. The prepared S9 fractions are store at −70° C. before using.
(§3) The hydrolytic rates of a compound of formula I in liver S9 is determined by incubating compound (10 uM) with S9 (2 mg/mL of total protein) in phosphate buffered saline at pH 8.0 for up to 6 hours. Concentrations of gemcitabine released via hydrolysis are determined by LC/MS analysis after the reaction is quenched with acetonitrile. Hydrolysis rates are calculated at 30 minutes in screening experiments and from the slope of the linear portion of the hydrolysis vs. time curves in characterization studies of a compound of formula I.

[2] = Liver S9 Hydrolysis Assay (monkey); format: in vitro ADME, cynomolgus monkey
Method: as §1, §2, §3

[3] = Liver S9 Hydrolysis Assay (mouse); format: in vitro ADME, CD-1 mouse; conditions: mouse liver S9, 10 uM, pH 8.0
Method: as §1, §2, §3

[4] = Small Intestine Homogenate Assay (human); format: in vitro ADME, humans; conditions: human SIH
Method: (§4) Small Intestine Homogenate Assay
(§5) To determine the stability of a compound of formula I to enzymatic hydrolysis in the intestine, crude homogenates of small intestinal epithelial cells are prepared from sections of the upper small intestine from CD-1 mice, beagle dogs, cynomolgus monkeys, and humans. Mouse and dog homogenates are prepared from freshly collected tissue, while monkey and human homogenates are prepared from previously frozen tissues. Cells are gently scraped from intestinal segments, pooled, and homogenized in 50 mM acetate buffer using Polytron (PT-10-85). Protein concentrations are determined by standard spectrophotometric techniques. The prepared homogenates are store at −70° C. before using.
(§6) The hydrolytic rates of a compound of formula I in small intestinal homogenates (SIH) is determined by incubating a compound of formula I (100 uM) with SIH (2.5-5 mg/mL of total protein) in acetate at pH 7.5 for up to 6 hours. Concentrations of gemcitabine released via hydrolysis is determined by LC/MS analysis after the reaction is quenched with acetonitrile. Hydrolysis rates are calculated at 30 minutes in screening experiments and from the slope of the linear portion of the hydrolysis vs. time curves in characterization studies of a compound of formula I.

[5] = Monkey Pharmacokinetics Assay; format: in vivo; conditions: administered intravenously to cynomolgus monkeys
Method: Monkey Pharmacokinetics Assay
The pharmacokinetic profiles of gemcitabine and a compound of formula I, are assessed in cynomolgus monkeys following oral and intravenous administration in a crossover design. Compounds are administered at doses selected to contain approximately 10 mg/kg of gemcitabine. Blood samples are collected into EDTA-treated tubes containing tetrahydrouridine (0.5 mM final concentration in blood) at designated intervals for up to 48 hours. Animals are pretreated with ranitidine (intravenous, 5 mg/kg) in the oral dosing periods. Plasma is isolated by centrifugation and frozen prior to analysis. Plasma concentrations of gemcitabine and a compound of formula I are determined by LC/MS/MS analysis. Pharmacokinetic parameters are determined using WinNonlin software (Pharsight Corp., Mountain View, Calif.).

[6] = Small Intestine Homogenate Assay (monkey); format: in vitro ADME, cynomolgus monkeys; conditions: monkey SIH
Method: as §4, §5, §6

[7] = 14 Day Mouse Study (oral toxicity and exposure); format: in vivo; conditions: 14 days oral gavage, CD-1 mice
Method: A 14-Day Mouse Study is conducted to evaluate whether a compound of formula I produces adverse effects in mice following 14 days of oral gavage dosing and to determine the plasma concentrations of a compound of formula I and its metabolites gemcitabine HCl and deoxydifluorouridine after 1 or 14 doses.
Male and female CD-1 mice 9-12 weeks of age are dosed with a compound of formula I […] by oral gavage. A range of doses is selected in an effort to determine a maximum tolerated dose and dose limiting toxicity. A dose volume of 10 mL/kg is used and doses are administered once daily.
Clinical signs, body weight, food consumption, hematology, clinical chemistry, plasma concentrations of a compound of formula I and metabolites gemcitabine HCl and deoxydifluorouridine, and pathology (including gross pathology, organ weights, and histopathology) are evaluated.

[8] = pH Chemical Stability Assay; format: physicochemical; conditions: pH range 1 to 8, after four hours, 40° C., 100 mcg/mL
Method: pH Chemical Stability Assay
The pH chemical stability is assessed using a semi-automated HPLC technique. Samples of compound of formula I are prepared at 100 mcg/mL in five buffers representing the pH range throughout the gastrointestinal tract (pH1-pH8). Samples are loaded onto an HPLC autosampler incubated at 40° C. Samples are repeatedly injected on the HPLC at hourly intervals for up to 24 hours with an HPLC column that separates a compound of formula I from gemcitabine. The peak area of the compound of formula I is monitored by UV detection over time and are compared to initial peak areas to determine stability.

[9] = 7-Day Dog Study (oral toxicity); format: in vivo; conditions: oral capsule once daily for 7 days, beagle dogs
Method: To evaluate the toxicity profile of a compound of formula I when administered to Beagle dogs for 7 days, and to determine the plasma concentrations of a compound of formula I and metabolites gemcitabine HCl and deoxydifluorouridine after 1 or 7 doses, a 7-day dog study is conducted.
Male and female beagle dogs 6-48 months of age are dosed orally via capsule with a compound of formula I. A range of doses is selected in an effort to determine a maximum tolerated dose and dose limiting toxicity. A dose volume of 1 mL/kg is used and doses aree administered once daily.
Clinical signs, body weight, food consumption, body temperature, hematology (including coagulation), clinical chemistry, urinalysis, plasma concentrations of the compound of Example I and its metabolites gemcitabine HCl and deoxydifluorouridine, and pathology (including gross pathology, organ weights, and histopathology) were evaluated.

[10] = test system: HCT-116 colon tumor cells; assay: In Vivo Assay, HCT-116 colon tumor xenograft; conditions: oral gavage, HCT-116 xenograft in female nude mice
Method: HCT-116 colon tumor cells are grown in vitro under standard tissue culture conditions, harvested, washed, and 5×10^6 cells (1:1 suspension in Matrigel, Collaborative Biomedical Products, Inc) are injected subcutaneously in the rear flank of female nude mice (Charles River, CD1 nu/nu, 24-27 g, irradiated with 450 Rads within 24 h of implantation). Tumors are allowed to grow to ˜100 mm^3 before initiation of therapy. Vehicle control, a compound of formula I or gemcitabine-HCl at various dose levels are administered to the mice by oral gavage (10 ml/kg volume) at the times indicated in the individual experiments. Compounds are administered either daily for fourteen days, every other day for a total of seven doses, or every third day for a total of four doses. […] Tumor size is determined by caliper measurements and tumor volume (mm^3) is estimated from the formula l×w^2×0.536, where l is the larger and w is the smaller of perpendicular diameters. All data (tumor measurements and animal weights) are captured twice-weekly beginning with the start of therapy and analyzed using a computer based tumor measurement system.

[11] = Small Intestine Homogenate Assay (dog); format: in vitro ADME, beagle dogs; conditions: dog SIH, 100 uM, pH 7.5
Method: as §4, §5, §6

[12] = 4-Day Mouse Screen (oral toxicity); format: in vivo; conditions: oral gavage once daily for 4 days, molar equivalent of 8-mg/kg gemcitabine, female CD-1 mice
Method: To evaluate the toxicity produced by orally administered compound of formula I when administered daily to female […] mice for 4 days, the gastrointestinal toxicity profiles of a compound of formula I is compared with the historical results for gastrointestinal toxicity when gemcitabine is administered orally at 8 mg/kg in a 4-day mouse study.
Female CD-1 mice 5-8 weeks of age are dosed with a compound of formula I by oral gavage. A dose level is chosen to approximate a molar equivalent of 8-mg/kg gemcitabine. A dose volume of 10 mL/kg is used and doses are administered once daily on 4 consecutive days. Necropsy is performed approximately 5-8 hours following the 4th dose.
Clinical signs, clinical chemistry, gross pathology, and limited histopathology (ileum, jejunum, and liver) are evaluated.

[13] = Mouse Pharmacokinetics; format: in vivo, CD-1 mice
Method: The pharmacokinetic profiles of gemcitabine and a compound of formula I, are assessed in male CD-1 mice following oral administration at doses selected to contain approximately 10 mg/kg of gemcitabine. Designated animals (n=3/time point/compound) are sacrificed at 0.08, 0.25, 0.5, 1, 2, and 6 hours after dosing, and systemic blood samples are collected into EDTA-treated tubes containing tetrahydrouridine (0.5 mM final concentration in blood) to inhibit further metabolism of gemcitabine. An additional 3 animals are sacrificed at 0.08 hours for collection of hepatic portal blood. Plasma is isolated by centrifugation and frozen prior to analysis. Plasma concentrations of gemcitabine and prodrugs are determined by LC/MS/MS analysis. Pharmacokinetic parameters are calculated using WinNonlin software (Pharsight Corp., Mountain View, Calif.). Pharmacokinetic parameters of each prodrug are compared to those determined from administration of oral gemcitabine hydrochloride in a similar study design.

[14] = Liver S9 Hydrolysis Assay (dog); format: in vitro ADME, beagle dog; conditions: dog liver S9, 10 uM, pH 8.0
Method: as §1, §2, §3

[15] = Small Intestine Homogenate Assay (mouse); format: in vitro ADME, CD-1 mice; conditions: mouse SIH, 100 uM, pH 7.5
Method: as §4, §5, §6

[16] = cited from earlier work
[17] = result of first pass metabolism; cited from earlier work

Q: What does the source list for CCCC(CCC)C(=O)Nc1ccn([C@@H]2O[C@H](CO)[C@@H](O)C2(F)F)c(=O)n1 [Example 1, 1-(2,2-difluoro-2-deoxy-β-D-ribofuranosyl)-4-(2-propyl-1-oxopentyl)aminopyrimidin-2-one]?
A: hydrolysis in liver S9 ([1]; human liver S9, 10 uM, pH 8.0): hydrolyzed; total compound converted to gemcitabine ([1]; human liver S9, 6 hour incubation): approximately 3.5%; hydrolysis in liver S9 ([2]; monkey liver S9, 10 uM, pH 8.0): hydrolyzed; total compound converted to gemcitabine ([2]; monkey liver S9, 6 hour incubation): approximately 3.5%; hydrolysis in liver S9 [3]: hydrolyzed; rate of hydrolysis in small intestine homogenate ([4]; 100 uM, pH 7.5): slow rate of hydrolysis; total compound converted to gemcitabine ([4]; 6 hour incubation): less than 3%; hydrolysis in vivo to release gemcitabine [5]: extensively hydrolyzed; rate of hydrolysis in small intestine homogenate ([6]; 100 uM, pH 7.5): slow rate of hydrolysis; total compound converted to gemcitabine ([6]; 6 hour incubation): less than 3%; enteropathy versus gemcitabine HCl on a molar equivalent basis [7]: less enteropathy; systemic exposure to gemcitabine HCl versus gemcitabine HCl on a molar equivalent basis [7]: approximately twice; compound degraded to gemcitabine [8]: Less than 25%; hematotoxicity and the other toxicities, including GI toxicity [9]: consistent with what has been previously described for parenteral gemcitabine; antitumor efficacy versus equivalent dose of gemcitabine-HCl [10]: comparable; overall toxicity versus equivalent amount of gemcitabine-HCl [10]: less overall toxicity; rate of hydrolysis in small intestine homogenate [11]: slow rate of hydrolysis; severity of atrophic intestinal changes or enteropathy versus gemcitabine HCl [12]: significant reduction; concentration of intact prodrug in hepatic portal plasma ([13]; 0.08 hours after oral dosing, CD-1 mice): relatively high concentrations; hydrolysis in vivo to release gemcitabine ([13]; administered orally to CD-1 mice, approx. 10 mg/kg of gemcitabine): extensively hydrolyzed; plasma exposure to gemcitabine compared to direct oral administration of gemcitabine hydrochloride ([13]; oral, CD-1 mice): increased; hydrolysis in liver S9 [14]: hydrolyzed; rate of hydrolysis in small intestine homogenate [15]: slow rate of hydrolysis

Q: Which “death or gastrointestinal toxicity” value ([16]; comparable exposures via intravenous dosing, previous mouse studies) does the source give for Nc1ccn([C@@H]2O[C@H](CO)[C@@H](O)C2(F)F)c(=O)n1 [gemcitabine, 2′,2′-difluoro-2′-deoxycytidine] here?
A: did not result in death or gastrointestinal toxicity

Q: And the intestinal lesions ([16]; single oral (gavage) dose of 167, 333, or 500 mg/kg, mice)?
A: moderate-to-marked loss of mucosal epithelium (atrophic enteropathy)

Q: And the oral bioavailability [17]?
A: poor oral bioavailability
